Series [1] concerns the target T1, human CB1 receptor (Homo sapiens, UniProt P21554). Description: Human CB1 receptor binding, [3H] CP-55,940 displacement on HEK cell membranes. The note with it: [3H] CP-55,940 500 pM. The arrangement: expressed in transfected cells; membranes. The method, then:
The Human CB1 receptor binding affinity and other biological activities of the compounds of this invention are determined by the following procedures.
Membrane preparation: Human Embryonic Kidney (HEK) Cells expressing the human CB1 receptor under transcriptional regulation of a tetracycline inducible promoter were grown in Dulbecco's Modified Essential Medium with sodium pyruvate (Invitrogen, Carlsbad, Calif.) containing 10% tetracycline free fetal bovine serum (Clonetech, Mountain View, Calif.) 100 μg/ml hygromycin (Calbiochem, San Diego, Calif.), 5 μg/ml blasticidin (Invitrogen). CB1 receptor expression was induced by addition of 1 μg/ml doxycycline (Calbiochem) and incubation for an additional 24 hours. Cells were released from flasks using Cell Dissociation Buffer (Invitrogen). Cells were pelleted by centrifugation at 500×G for 5 minutes. Membranes were prepared by resuspending cells in ice cold TEE Buffer (25 mM Tris pH 7.4, 5 mM EDTA, 5 mM EGTA, Complete Protease Inhibitor (Roche, Basel, Switzerland)). Cells were lysed with 12 strokes of a dounce homogenizer. Unlysed cells were pelleted by centrifugation at 500×G for 5 minutes. Membranes were pelleted by centrifugation at 25,000×G for 30 minutes. Membranes were resuspended in TEE, dounced 12 strokes, and pelleted a second time at 25,000×G for 30 minutes. Membrane pellet was resuspended in 50 mM Tris pH 7.4, 100 mM NaCl, 3 mM MgCl2, 0.2 mM EGTA, Complete Protease Inhibitor (Roche). Protein concentration was determined using the Micro-BCA Protein Assay Kit (Pierce, Rockford, Ill.) using BSA as a standard. Membranes were quick frozen and stored at −80 degrees Celsius until use. Binding experiments: 50 μl of test compound was incubated with 50 μl, of [^3H] CP-55,940 (Perkin Elmer, Boston, Mass.) (final concentration 500 pM) and 150 μl of membrane homogenate (1 μg/well) in polypropylene 96-well plates (Corning, Acton, Mass.). Final reaction conditions were 50 mM Tris pH 7.4, 100 mM NaCl, 3 mM MgCl2, 0.2 mM EGTA, 0.04% BSA. Nonspecific binding was determined by incubation with 50 μM WIN-55,212-2 (Tocris, Ellisville, Mo.). After incubation at room temperature for 60 minutes reactions were harvested by vacuum filtration through Unifilter GF/B-96 filters (Perkin Elmer) that had been presoaked in assay buffer containing 0.5% BSA (Sigma, St. Louis, Mo.) using a FilterMate Plate Harvester (Perkin Elmer). Filters were rinsed 4 times with 50 mM Tris pH 7.4, 0.025% Tween20 and dried at 50 degrees Celsius for at least 30 minutes. 40 μl of Microscint-20 (Perkin Elmer) was added per well, and plates were counted using a Top-Count Microplate Scintillation Counter (Perkin Elmer). Binding data were analyzed and EC50 and Ki values calculated using Graph Pad Prism 4.0 Software.

Series [2] concerns the target T1, human CB1 receptor. Description: GTPγS binding on membranes of CHO cells expressing the human CB1 receptor. The note with it: CHO cell membranes, [35S] GTPγS. The arrangement: expressed in transfected cells; host or cells: CHO cells (G418 selection); membranes. The class given is biochemical. The method, then:
Membrane preparation: CHO cells expressing the human CB1 receptor were grown to 80% confluence in Ham's F-12 Nutrient Medium (Invitrogen) containing 10% fetal bovine serum (Invitrogen), 1% pen/strep (Invitrogen), 1% Nonessential amino acids (Invitrogen) and 500 μg/ml G418 (Invitrogen). Cells were released from flasks using Cell Dissociation Buffer (Invitrogen). Cells were pelleted by centrifugation at 500×G for 5 minutes. Membranes were prepared by resuspending cells in ice cold Assay Buffer (25 mM Tris pH 7.4, 5 mM EDTA, 5 mM EGTA, Complete Protease Inhibitor (Roche)). Cells were lysed with 12 strokes of a dounce homogenizer. Unlysed cells were pelleted by centrifugation at 500×G for 5 minutes. Membranes were pelleted by centrifugation at 25,000×G for 30 minutes. Membranes were resuspended in TEE, dounced 12 strokes, and pelleted a second time at 25,000×G for 30 minutes. Membrane pellet was resuspended in 50 mM Tris pH 7.4, 100 mM NaCl, 3 mM MgCl2, 0.2 mM EGTA, Complete Protease Inhibitor (Roche). Protein concentration was determined using the Micro-BCA Protein Assay Kit (Pierce) using BSA as a standard. Membranes were frozen and stored at −80 degrees Celsius until use. GTPγS Binding: 40 μl of test compound was incubated with 20 μl of [^35S] GTPγS (Perkin Elmer) (1250 Ci/millimole) and 140 μl of membrane homogenate (5 ug/well) in polypropylene 96-well plates (Corning). Final reaction conditions were 50 mM Tris pH 7.4, 100 mM NaCl, 3 mM […], 0.2 mM EGTA, 0.04% BSA. After incubation at 37 degrees Celsius for 45 minutes reactions were harvested by vacuum filtration through Unifilter GF/B-96 filters (Perkin Elmer) using a FilterMate Plate Harvester (Perkin Elmer). Filters were rinsed 4 times with ice cold 50 mM Tris pH 7.4, 3 mM MgCl2, 0.2 mM EGTA and dried at 50 degrees Celsius for at least 30 minutes. 40 μl of Microscint-20 (Perkin Elmer) was added per well, and plates were counted using a Top-Count Microplate Scintillation Counter (Perkin Elmer). Binding data were analyzed and EC50 values were calculated using Graph Pad Prism 4.0 Software.

Structures are written as SMILES. Where a name gives a salt, the structure may show the parent alone.

T1 sequence (P21554 whole entry): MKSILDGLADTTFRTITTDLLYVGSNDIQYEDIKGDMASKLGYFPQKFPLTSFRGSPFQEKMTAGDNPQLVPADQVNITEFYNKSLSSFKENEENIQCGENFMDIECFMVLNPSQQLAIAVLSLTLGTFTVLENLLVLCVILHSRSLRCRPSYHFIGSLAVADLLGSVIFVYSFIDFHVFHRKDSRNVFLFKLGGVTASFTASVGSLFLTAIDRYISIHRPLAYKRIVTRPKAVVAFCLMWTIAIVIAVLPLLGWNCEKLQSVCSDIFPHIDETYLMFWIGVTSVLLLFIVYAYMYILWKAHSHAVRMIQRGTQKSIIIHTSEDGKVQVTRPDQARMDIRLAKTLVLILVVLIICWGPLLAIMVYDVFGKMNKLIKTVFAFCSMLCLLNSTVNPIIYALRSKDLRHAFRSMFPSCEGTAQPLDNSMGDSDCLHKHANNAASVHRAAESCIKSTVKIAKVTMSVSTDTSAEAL

`CC[C@H](C)[C@H](NC(=O)n1c(=O)n(CCN2CCCCC2)c2ccccc21)C(N)=O` (as salt: hydrochloride): the melting point (as a rule, the temperature, or range, at which the solid turns liquid) turned out to be 217.1 °C.
As to `CCCCCn1c(=O)n(C(=O)N[C@H](C(N)=O)C(C)(C)C)c2cccnc21` [Example 365], at human CB1 receptor [1], affinity was put at a Ki of 95.1 nM. Also, on human CB1 receptor [2], a half-maximal effect (EC50) was put at 1030 nM.
For `CC(C)(C)[C@H](NC(=O)n1c(=O)n(CC2CCCCC2)c2cc(F)ccc21)C(N)=O` [Example 169] the same measures were 0.28 nM and 1 nM.
`O=C(NCc1ccoc1)n1c(=O)n(CC2CCOCC2)c2ccccc21` [Example 329]: the affinity at human CB1 receptor [1], expressed as Ki, was 28 nM. It took 606 nM to reach a half-maximal effect on human CB1 receptor [2] (EC50).
For `CC(C)(C)[C@H](NC(=O)n1c(=O)n(CC2CCOCC2)c2ccccc21)c1nnc(N)o1` [Example 319], in that order: 5.17 nM and 96.3 nM.
For `CC(C)(C)[C@H](NC(=O)n1c(=O)n(CC2CCOCC2)c2ccccc21)C(=O)NC1CCC1` [Example 300], in that order: 41 nM and 260 nM.
Consider `CC(C)(C)[C@H](NC(=O)n1c(=O)n(Cc2ccccc2F)c2ccccc21)C(N)=O` [Example 357], for which the Ki (as a rule, a measure of affinity in units of concentration, obtained from inhibition or displacement) on human CB1 receptor [1] was 2.4 nM. Besides, on human CB1 receptor [2], a half-maximal response (EC50) required 123 nM.
In turn, `CC(C)(C)[C@H](NC(=O)n1c(=O)n(CC2CCOCC2)c2ccccc21)C(N)=O` [Example 132, N-[(1S)-1-(aminocarbonyl)-2,2-dimethylpropyl]-2-oxo-3-(tetrahydro-2H-pyran-4-ylmethyl)-2,3-dihydro-1H-benzimidazole-1-carboxamide] registered an inhibitory constant (Ki) at human CB1 receptor [1] of 3.4 nM. For the same compound, on human CB1 receptor [2], the concentration for a half-maximal effect (EC50) (in general, the concentration giving half of the maximal effect) turned out to be 12.7 nM.
For `Cc1nc(CNC(=O)n2c(=O)n(CC3CCOCC3)c3ccccc32)cs1` [Example 341], in that order: 24.7 nM and 355 nM.
As for `CCCCCn1c(=O)n(C(=O)N[C@H]2CCCc3ccccc32)c2ccccc21` [Example 199], the Ki on human CB1 receptor [1] stood at 0.9 nM. The compound also showed an EC50 on human CB1 receptor [2] of 40.1 nM.
`CC(C)[C@H](NC(=O)n1c(=O)n(CC2CCCCC2)c2ccccc21)C(N)=O` [Example 203] displayed an inhibition constant (Ki) at human CB1 receptor [1] of 8.23 nM. This compound also gave an EC50 at human CB1 receptor [2] of 74.1 nM.
For `CCc1nc(CNC(=O)n2c(=O)n(CC3CCOCC3)c3ccccc32)no1` [Example 327], in that order: 36 nM and over 10000 nM.
Take `CC(C)(C)[C@H](NC(=O)n1c(=O)n(Cc2ccccc2)c2ccccc21)C(=O)NCCO` [Example 360]: the affinity on human CB1 receptor [1], expressed as Ki, was 19.3 nM. Moreover, a half-maximal effect on human CB1 receptor [2] (EC50) was put at 149 nM.
Compound `Cc1cccc2c1n(CCS(C)(=O)=O)c(=O)n2C(=O)N[C@H](C(=O)N(C)C)C(C)(C)C` had a melting point of 190.7 °C.
With `CC(C)(C)[C@H](NC(=O)n1c(=O)n(CC2CCOCC2)c2ccccc21)C(=O)NC[C@H](O)CO` [Example 345], the inhibition constant (Ki) on human CB1 receptor [1] was determined as 52.8 nM. In addition, the 50% effective concentration (EC50) on human CB1 receptor [2] was determined as 1150 nM.
Take `CC(C)(C)[C@H](NC(=O)n1c(=O)n(CC2CCOCC2)c2cc(F)ccc21)C(N)=O` [Example 290]: the Ki on human CB1 receptor [1] is 19.2 nM. Besides, the 50% effective concentration (EC50) on human CB1 receptor [2] came to 25.1 nM.
`CC(C)(C)[C@H](NC(=O)n1c(=O)n(Cc2ccc(F)cc2)c2ccccc21)C(N)=O` [Example 363]: the Ki on human CB1 receptor [1] was 0.36 nM. On human CB1 receptor [2], this compound came in with a half-maximal effective concentration (EC50) of 4.74 nM.
In the case of `O=C(N[C@H]1CCCc2ccccc21)n1c(=O)n(CC2CCCCC2)c2ccccc21` [Example 197], the Ki on human CB1 receptor [1] stood at 0.78 nM. The compound further gave an EC50 at human CB1 receptor [2] of 13.2 nM.
On to `CNC(=O)[C@@H](NC(=O)n1c(=O)n(CC2CCOCC2)c2ccccc21)C(C)(C)C` [Example 303], for which the affinity at human CB1 receptor [1], expressed as Ki, was 5.71 nM. Further, the EC50 on human CB1 receptor [2] was found to be 36.6 nM.
For the compound `CCc1nc(CNC(=O)n2c(=O)n(CC3CCOCC3)c3ccccc32)cs1` [Example 328], the affinity on human CB1 receptor [1] corresponds to a Ki of 5.94 nM. The compound also came in with a half-maximal effective concentration (EC50) on human CB1 receptor [2] of 167 nM.
On human CB1 receptor [1], `O=C(N[C@H]1c2ccccc2C[C@H]1O)n1c(=O)n(CC2CCOCC2)c2ccccc21` [Example 280] came in with an inhibition constant Ki of 31 nM. The EC50 at human CB1 receptor [2] worked out at 136 nM.
In the case of `Cc1ccc2c(c1)n(CC1CCCCC1)c(=O)n2C(=O)NC1(C(N)=O)CCCCC1` [Example 266], affinity on human CB1 receptor [1] was put at a Ki of 109 nM. The half-maximal effective concentration (EC50) on human CB1 receptor [2] was over 2850 nM.

Source of the values: patent US20090298811A1, “BENZIMIDAZOLONE DERIVATIVES” (Pfizer Inc, priority 2006, published 2009).
